Measured values reported in patent US20230024302A1, “2,3,5-TRISUBSTITUTED PYRAZOLO[1,5-A]PYRIMIDINE COMPOUNDS” (Arcus Biosciences, Inc., priority 2019, published 2023).
pIC50: −log10 of the molar value. Where two headings read alike, the source gives them in different places.

Key:
PI3Kγ (p120γ) = molecular target: T1, PI3Kγ (p120γ) (Homo sapiens, UniProt P48736); assay: Inhibition of PI3K kinase activity (ADP Glo), PI3Kγ; conditions: read-out: biochemical potency (PI3Kγ IC50)
T1 construct: purchased Promega V1761
Outline: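 IC50 values come from a 4-parameter nonlinear fit of ADP-Glo luminescence, which measures ADP produced as PIP2 is phosphorylated to PIP3. The p120γ enzyme (2× stock 8 nM) sat with compound 1 h at rt before substrate (2× stocks: 50 μM ATP, 0.1 mg/ml PIP2) was added. Phosphorylation then proceeded 60 min at rt.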

PI3Kγ = molecular target: T2, PI3Kγ (Homo sapiens, UniProt P48736); assay: PI3Kγ cellular assay in THP-1 cells (AKT pS473 AlphaLISA); type: cell-based
T2 construct: host or cells: THP-1
Outline: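 Endogenous AKT S473 phosphorylation, detected by AlphaLISA in lysates, serves as the PI3Kγ activity read-out in stimulated, serum-starved THP-1 cells (1.8×10^5/well).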

[1] = Table 6, rhMCP-1 stimulated AKT pS473, read-out: cellular potency (PI3Kγ IC50)
[2] = Table 7, rhMCP-1 stimulated AKT pS473, read-out: cellular potency (PI3Kγ IC50)

T1 sequence (P48736 whole entry): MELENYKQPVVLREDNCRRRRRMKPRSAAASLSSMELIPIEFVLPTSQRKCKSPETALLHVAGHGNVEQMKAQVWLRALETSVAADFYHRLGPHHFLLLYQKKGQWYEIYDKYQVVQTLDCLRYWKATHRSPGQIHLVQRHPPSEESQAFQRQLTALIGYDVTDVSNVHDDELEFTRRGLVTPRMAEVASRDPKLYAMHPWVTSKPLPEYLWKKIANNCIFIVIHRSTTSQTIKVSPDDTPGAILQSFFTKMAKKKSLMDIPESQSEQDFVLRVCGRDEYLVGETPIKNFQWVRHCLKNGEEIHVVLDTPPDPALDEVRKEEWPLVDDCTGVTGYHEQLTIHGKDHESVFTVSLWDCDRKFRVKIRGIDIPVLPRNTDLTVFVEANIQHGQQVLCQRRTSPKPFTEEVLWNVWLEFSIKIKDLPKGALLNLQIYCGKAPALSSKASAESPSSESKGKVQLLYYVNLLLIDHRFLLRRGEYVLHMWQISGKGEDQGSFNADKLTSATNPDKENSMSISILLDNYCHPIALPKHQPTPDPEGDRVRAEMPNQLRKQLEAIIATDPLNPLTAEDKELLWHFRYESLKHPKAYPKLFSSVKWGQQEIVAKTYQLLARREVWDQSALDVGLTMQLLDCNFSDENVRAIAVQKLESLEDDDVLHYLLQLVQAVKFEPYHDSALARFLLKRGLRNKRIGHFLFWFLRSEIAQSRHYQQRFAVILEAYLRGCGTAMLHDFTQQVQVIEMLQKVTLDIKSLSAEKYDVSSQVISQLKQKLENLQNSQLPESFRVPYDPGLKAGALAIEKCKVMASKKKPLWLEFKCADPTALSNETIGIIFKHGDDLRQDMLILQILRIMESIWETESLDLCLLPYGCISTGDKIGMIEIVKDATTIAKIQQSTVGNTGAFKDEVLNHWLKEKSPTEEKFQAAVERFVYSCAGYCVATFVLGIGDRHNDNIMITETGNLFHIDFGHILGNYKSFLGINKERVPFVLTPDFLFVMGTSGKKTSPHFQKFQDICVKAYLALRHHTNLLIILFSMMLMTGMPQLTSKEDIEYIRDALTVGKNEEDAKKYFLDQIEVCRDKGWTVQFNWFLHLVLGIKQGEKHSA
T2 sequence (P48736 whole entry): as above

Structure (SMILES)	pIC50 (PI3Kγ (p120γ); Table 6, p120γ)	pIC50 (PI3Kγ; [1])	pIC50 (PI3Kγ (p120γ); Table 7, p120γ)	pIC50 (PI3Kγ; [2])
C[C@@H](C1CC1)N1Cc2cc(-c3ccn4nc(N)c(C(=O)N[C@H]5C[C@@](C)(O)C5)c4n3)cc(N3CC[C@@H](O)C3)c2C1=O [Example 432]	> 7.00	6.00 to 7.00	–	–
C[C@H](CO)NC(=O)c1c(N)nn2ccc(-c3cc4c(c(N5CC(F)(F)C5)c3)C(=O)N([C@@H](C)C3CC3)C4)nc12 [Example 435]	> 7.00	6.00 to 7.00	–	–
C[C@@H](C1CC1)N1Cc2cc(-c3ccn4nc(N)c(C(=O)N[C@H]5CC[C@@](C)(O)CC5)c4n3)cc(N3CCN(C)CC3)c2C1=O [Example 437]	> 7.00	6.00 to 7.00	–	–
C[C@@H](C1CC1)N1Cc2cc(-c3ccn4nc(N)c(C(=O)Nc5cccnc5)c4n3)cc(N3CC[C@@H](O)C3)c2C1=O [Example 438]	> 7.00	6.00 to 7.00	–	–
C[C@H](CO)NC(=O)c1c(N)nn2ccc(-c3cc4c(c(OC5CC(F)(F)C5)c3)C(=O)N([C@@H](C)C3CC3)C4)nc12 [Example 439]	> 7.00	6.00 to 7.00	–	–
C[C@@H](C1CC1)N1Cc2cc(-c3ccn4nc(N)c(C(=O)N[C@H]5CCNC5=O)c4n3)cc(O[C@@H]3CCOC3)c2C1=O [Example 441]	> 7.00	< 6.00	–	–
C[C@@H](C1CC1)N1Cc2cc(-c3ccn4nc(N)c(C(=O)N[C@@H]5CNC(=O)C5)c4n3)cc(O[C@@H]3CCOC3)c2C1=O [Example 443]	> 7.00	< 6.00	–	–
C[C@@H](C1CC1)N1Cc2cc(-c3ccn4nc(N)c(C(=O)N[C@H]5C[C@](C)(O)C5)c4n3)cc(S(C)(=O)=O)c2C1=O [Example 444]	> 7.00	6.00 to 7.00	–	–
C[C@@H](C1CC1)N1Cc2cc(-c3ccn4nc(N)c(C(=O)N[C@H]5CC[C@@](C)(O)CC5)c4n3)cc(S(C)(=N)=O)c2C1=O (some centres unmarked) [Example 448]	> 7.00	6.00 to 7.00	–	–
C[C@@H](C1CC1)N1Cc2cc(-c3ccn4nc(N)c(C(=O)Nc5cccnc5)c4n3)cc(C3CC3)c2C1=O [Example 452]	> 7.00	6.00 to 7.00	–	–
C[C@@H](C1CC1)N1Cc2cc(-c3ccn4nc(N)c(C(=O)N[C@@H](CO)C5CC5)c4n3)cc(C(C)(C)O)c2C1=O [Example 453]	> 7.00	6.00 to 7.00	–	–
C[C@@H](C1CC1)N1Cc2cc(-c3ccn4nc(N)c(C(=O)N[C@@H](CO)C5CC5)c4n3)cnc2C1=O [Example 454]	–	–	> 7.00	< 6.00

Results, then the compound that gave them:

pIC50 (PI3Kγ (p120γ); Table 6, p120γ)	pIC50 (PI3Kγ; [1])	pIC50 (PI3Kγ (p120γ); Table 7, p120γ)	pIC50 (PI3Kγ; [2])	Structure (SMILES)
> 7.00	6.00 to 7.00	–	–	C[C@H](N1Cc2cc(-c3ccn4nc(N)c(C(=O)NC5CC5)c4n3)cc(N3CC[C@@H](O)C3)c2C1=O)C(F)(F)F [Example 431]
> 7.00	6.00 to 7.00	–	–	C[C@@H](C1CC1)N1Cc2cc(-c3ccn4nc(N)c(C(=O)NC5CC5)c4n3)cc(N3CC(O)C3)c2C1=O [Example 433]
> 7.00	6.00 to 7.00	–	–	C[C@H](N1Cc2cc(-c3ccn4nc(N)c(C(=O)N[C@@H](CO)C5CC5)c4n3)cc(N3CC[C@@H](O)C3)c2C1=O)C(F)(F)F [Example 434]
> 7.00	6.00 to 7.00	–	–	C[C@@H](C1CC1)N1Cc2cc(-c3ccn4nc(N)c(C(=O)NC5CC5)c4n3)cc(N3CC(F)(F)C3)c2C1=O [Example 436]
> 7.00	6.00 to 7.00	–	–	C[C@H](CO)NC(=O)c1c(N)nn2ccc(-c3cc4c(c(O[C@H](C)C(F)(F)F)c3)C(=O)N([C@@H](C)C3CC3)C4)nc12 [Example 440]
> 7.00	6.00 to 7.00	–	–	C[C@@H](C1CC1)N1Cc2cc(-c3ccn4nc(N)c(C(=O)NC5CC5)c4n3)cc(O[C@H](C)C(F)(F)F)c2C1=O [Example 442]
> 7.00	6.00 to 7.00	–	–	C[C@@H](C1CC1)N1Cc2cc(-c3ccn4nc(N)c(C(=O)N[C@H]5C[C@H](O)C5)c4n3)cc(S(C)(=O)=O)c2C1=O [Example 445]
> 7.00	6.00 to 7.00	–	–	CC(C)NS(=O)(=O)c1cc(-c2ccn3nc(N)c(C(=O)NC4CC4)c3n2)cc2c1C(=O)N([C@@H](C)C1CC1)C2 [Example 446]
> 7.00	6.00 to 7.00	–	–	C[C@@H](C1CC1)N1Cc2cc(-c3ccn4nc(N)c(C(=O)NC5CC5)c4n3)cc(S(C)(=N)=O)c2C1=O (some centres unmarked) [Example 447]
> 7.00	6.00 to 7.00	–	–	CC[C@H](N1Cc2cc(-c3ccn4nc(N)c(C(=O)NC5CC5)c4n3)cc(Cl)c2C1=O)C(F)(F)F [Example 449]
> 7.00	6.00 to 7.00	–	–	CCc1cc(-c2ccn3nc(N)c(C(=O)NC4CC4)c3n2)cc2c1C(=O)N([C@@H](C)C1CC1)C2 [Example 450]
> 7.00	6.00 to 7.00	–	–	C[C@@H](C1CC1)N1Cc2cc(-c3ccn4nc(N)c(C(=O)NC5CC5)c4n3)cc(C#N)c2C1=O [Example 451]
–	–	> 7.00	6.00 to 7.00	C[C@@H](C1CC1)N1Cc2cc(-c3ccn4nc(N)c(C(=O)NC5CC5)c4n3)cnc2C1=O [Example 455]
